By IC50 is commonly meant the point on the concentration scale where inhibition reaches its midpoint.

The values below come from patent US11084824B2, “Pyrazolopyrimidine derivatives, preparation method thereof, and pharmaceutical composition for use in preventing or treating cancer, autoimmune disease and brain disease containing the same as an active ingredient” (Korea Research Institute of Chemical Technology, priority 2017, dated 2021).

Experiment [1] addresses Bruton's tyrosine kinase (BTK) (Homo sapiens (Human), UniProt Q06187). Description: BTK enzyme inhibition assay (Cisbio HTRF kit). Format: biochemical. To be noted: 30 minutes reaction, fluorescence 665 nm/620 nm. The method, then:
BTK enzyme evaluation with each compound of examples of the invention was performed by using BTK enzyme inhibition diagnosis kit (Cisbio, Codolet, France). […] Then, EDTA (ethylenediaminetetraacetic acid) was added thereto in order to terminate the reaction. At this time, the EDTA solution contained curopium-containing antibody (antiphosphoresidue antibody) and straptavidin-XL665 (SA-XL665, Cisbio). After incubation for 1 hour, fluorescence was measured. The emission values of 665 nm and 620 nm excited at 337 nm were measured with Envision reader. IC50 values were determined using GraphPad prism (version 5). Herein, the curve indicates a nonlinear regression model, which was determined by logarithmic functions and reaction values.

The test system of the next experiment is TMD8 cells. Description: TMD8 cell growth inhibition (WST-1, 72 hours). The experiment is classed as cell-based. To be noted: Homo sapiens, TMD8 ABC type DLBCL cell line, WST-1, absorbance 450 nm. The method, then: TDM-8 cells, the ABC (activated B-cell) type DLBCL (diffuse large B cell lymphoma) cell line sensitive to BTK signaling, were seeded in a 96-well plate at 30% confluency. Then, the compounds of the invention were treated thereto at different concentrations. 72 hours later, WST-1 reagent was added thereto. One hour later, absorbance was measured at 450 nm by using a spectramax spectrophotometer.
On the technique in general: Tetrazolium assays rely on reduction of a dye to a coloured formazan, in cell work by metabolically active cells.

SMILES strings stand for the structures.

Sequence of Bruton's tyrosine kinase (BTK) (Q06187 whole entry): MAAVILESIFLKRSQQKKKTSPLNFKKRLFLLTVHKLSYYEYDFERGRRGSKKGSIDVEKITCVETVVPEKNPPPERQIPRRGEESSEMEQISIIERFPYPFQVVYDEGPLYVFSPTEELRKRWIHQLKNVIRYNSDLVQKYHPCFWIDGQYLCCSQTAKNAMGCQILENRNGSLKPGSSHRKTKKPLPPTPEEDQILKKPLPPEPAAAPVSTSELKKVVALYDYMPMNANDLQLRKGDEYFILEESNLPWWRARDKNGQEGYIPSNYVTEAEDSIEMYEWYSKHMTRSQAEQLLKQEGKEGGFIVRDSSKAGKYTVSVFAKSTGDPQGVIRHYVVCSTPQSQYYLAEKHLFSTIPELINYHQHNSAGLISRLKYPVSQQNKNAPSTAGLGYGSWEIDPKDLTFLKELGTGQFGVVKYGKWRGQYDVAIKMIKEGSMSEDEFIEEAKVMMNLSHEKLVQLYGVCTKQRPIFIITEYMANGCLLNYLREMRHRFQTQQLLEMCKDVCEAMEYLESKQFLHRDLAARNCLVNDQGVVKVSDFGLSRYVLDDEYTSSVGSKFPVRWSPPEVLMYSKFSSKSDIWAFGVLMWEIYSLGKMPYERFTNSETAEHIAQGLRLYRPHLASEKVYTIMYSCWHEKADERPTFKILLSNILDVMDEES

On to `Cc1cccc(C)c1Nc1nn(C)c2nc(Nc3ccc4c(c3)C(C(C)C)NCC4)ncc12` (stereo not drawn) [Example 49, N^3-(2,6-dimethylphenyl)-N^6-(1-isopropyl-1,2,3,4-tetrahydroisoquinoline-7-yl)-1-methyl-1H-pyrazolo[3,4-d]pyrimidine-3,6-diamine], for which the IC50 in experiment [1] is 1.61 nM; in the experiment with TMD8 cells it was 19.6 nM.
`CC(=O)N1Cc2cc(Nc3ncc4c(Nc5c(C)cccc5C)nn(C)c4n3)ccc2C(C)(C)C1` [Example 68, 1-(7-((3-((2,6-dimethylphenyl)amino)-1-methyl-1H-pyrazolo[3,4-d]pyrimidine-6-yl)amino)-4,4-dimethyl-3,4-dihydroisoquinoline-2(1H)-yl)ethane-1-one] gave an IC50 in the experiment on TMD8 cells of 121 nM.
Consider `Cc1cccc(C)c1Nc1nn(C)c2nc(Nc3ccc4c(c3)CN(C(C)C)CC4)ncc12` [Example 21, N-(2,6-dimethylphenyl)-N^6 (2-isopropyl-1,2,3,4-tetrahydroisoquinoline-7-yl)-1-methyl-1H-pyrazolo[3,4-d]pyrimidine-3,6-diamine], for which the IC50 in experiment [1] was 0.2 nM; in the experiment with TMD8 cells, 139 nM.
For the molecule `Cc1cccc(C)c1Nc1nn(C)c2nc(Nc3ccc4c(c3)CN(C(=O)CO)CC4)ncc12` [Example 22, 1-(7-(3-(2,6-dimethylphenylamino)-1-methyl-1H-pyrazolo[3,4-d]pyrimidine-6-ylamino)-3,4-dihydroisoquinoline-2(1H)-yl)-2-hydroxyethanone], the IC50 in experiment [1] came out at 0.4 nM; with TMD8 cells, 46.4 nM.
In the case of `Cc1ccc(NC(=O)c2cccc(C(F)(F)F)c2)cc1Nc1nn(C)c2nc(Nc3ccc4c(c3)C(C)NCC4)ncc12` (stereo not drawn) [Example 47, N-(4-methyl-3-(1-methyl-6-(1-methyl-1,2,3,4-tetrahydroisoquinoline-7-ylamino)-1H-pyrazolo[3,4-d]pyrimidine-3-ylamino)phenyl)-3-(trifluoromethyl)benzamide], the IC50 stood at 5.42 nM in experiment [1] and 13.8 nM with TMD8 cells.
Take `Cc1cccc(C)c1Nc1nn(C2CCCCC2)c2nc(Nc3ccc4c(c3)CNCC4)ncc12` [Example 26, 1-cyclohexyl-N^3-(2,6-dimethylphenyl)-N^6 (1,2,3,4-tetrahydroisoquinoline-7-yl)-1H-pyrazolo[3,4-d]pyrimidine-3,6-diamine]: the figures for the IC50 (in experiment [1]; in the experiment on TMD8 cells) were 2 nM and 64.9 nM, respectively.
Molecule `Cc1ccc(NC(=O)Nc2cccc(C(F)(F)F)c2)cc1Nc1nn(C)c2nc(Nc3ccc4c(c3)CNCC4)ncc12` [Example 57, 1-(4-methyl-3-((1-methyl-6-((1,2,3,4-tetrahydroisoquinoline-7-yl)amino)-1H-pyrazolo[3,4-d]pyrimidine-3-yl)amino)phenyl)-3-(3-(trifluoromethyl)phenyl)urea] gave an IC50 with TMD8 cells of 221 nM.
For the molecule `Cc1cccc(C)c1Nc1nn(C)c2nc(Nc3ccc4c(c3)CN(C)CC4)ncc12` [Example 17, N^3-(2,6-dimethylphenyl)-1-methyl-N^6-(2-methyl-1,2,3,4-tetrahydroisoquinoline-7-yl)-1H-pyrazolo[3,4-d]pyrimidine-3,6-diamine], the figures for the IC50 (in experiment [1]; with TMD8 cells) were 1.2 nM and 36 nM, respectively.
In turn, `CC(=O)N1Cc2ccc(Nc3ncc4c(Nc5c(C)cccc5C)nn(C)c4n3)cc2C1` [Example 72, 1-(5-((3-((2,6-dimethylphenyl)amino)-1-methyl-1H-pyrazolo[3,4-d]pyrimidine-6-yl)amino)isoindolin-2-yl)ethane-1-one] yielded an IC50 with TMD8 cells of 266 nM.
The same measure, in the same setting: next, `Cc1cccc(C)c1Nc1nn(C(C)C)c2nc(Nc3ccc4c(c3)CNCC4)ncc12` [Example 27, N^3 (2,6-dimethylphenyl)-1-isopropyl-N6-(1,2,3,4-tetrahydroisoquinoline-7-yl)-1H-pyrazolo[3,4-d]pyrimidine-3,6-diamine]: 35.4 nM; `Cc1ccc(C(=O)Nc2cccc(C(F)(F)F)c2)cc1Nc1nn(C)c2nc(Nc3ccc4c(c3)CNCC4)ncc12` [Example 52, 4-methyl-3-(1-methyl-6-(1,2,3,4-tetrahydroisoquinoline-7-ylamino)-1H-pyrazolo[3,4-d]pyrimidine-3-ylamino)-N-(3-(trifluoromethyl)phenyl)benzamide]: 83.2 nM; `COCCOc1cc(C)c(Nc2nn(C)c3nc(Nc4ccc5c(c4)C(C(C)C)NCC5)ncc23)c(C)c1` (stereo not drawn) [Example 78, N6-(1-isopropyl-1,2,3,4-tetrahydroisoquinoline-7-yl)-N 3-(4-(2-methoxyethoxy)-2,6-dimethylphenyl)-1-methyl-1H-pyrazolo[3,4-d]pyrimidine-3,6-diamine]: 26.2 nM.
The same measure, in the same setting: the figure for `Cc1ccc(C)c(Nc2nn(C)c3nc(Nc4ccc5c(c4)CNCC5)ncc23)c1` [Example 45, N^3-(2,5-dimethylphenyl)-1-methyl-N^6 (1,2,3,4-tetrahydroisoquinoline-7-yl)-1H-pyrazolo[3,4-d]pyrimidine-3,6-diamine] is 720 nM; for `Cc1cc(C)c(Cl)c(Nc2nn(C)c3nc(Nc4ccc5c(c4)CNCC5)ncc23)c1` [Example 38, N^3-(2-chloro-3,5-dimethylphenyl)-1-methyl-N^6-(1,2,3,4-tetrahydroisoquinoline-7-yl)-1H-pyrazolo[3,4-d]pyrimidine-3,6-diamine] it is 832 nM; for `Cc1cccc(C)c1Nc1nn(C)c2nc(Nc3ccc4c(c3)C(=O)NCC4)ncc12` [Example 77, 7-((3-((2,6-dimethylphenyl)amino)-1-methyl-1H-pyrazolo[3,4-d]pyrimidine-6-yl)amino)-3,4-dihydroisoquinoline-1(2H)-one] it is 146 nM.
Still for that read-out and setting: the figure for `Cc1cccc(C)c1Nc1nn(C)c2nc(Nc3ccc4c(c3)CN(C)C(C)(C)C4)ncc12` [Example 66, N3-(2,6-dimethylphenyl)-1-methyl-N 6-(2,3,3-trimethyl-1,2,3,4-tetrahydroisoquinoline-7-yl)-1H-pyrazolo[3,4-d]pyrimidine-3,6-diamine] is 28.5 nM.
`Cc1cccc(C)c1Nc1nn(C)c2nc(Nc3ccc4c(c3)CCCC4)ncc12` [Example 75, N3-(2,6-dimethylphenyl)-1-methyl-N 6-(5,6,7,8-tetrahydronaphthalen-2-yl)-1H-pyrazolo[3,4-d]pyrimidine-3,6-diamine] showed an IC50 with TMD8 cells of 667 nM. This IC50 lies about 23-fold higher than the previous one.
With `Cc1cccc(C)c1Nc1nn(C)c2nc(Nc3ccc(C4CCNCC4)cc3)ncc12` [Comparative Example 1, N^3-(2,6-dimethylphenyl)-1-methyl-N^6-(4-(piperidine-4-yl)phenyl)-1H-pyrazolo[3,4-d]pyrimidine-3,6-diamine, reference compound], it took 10 nM to reach half-maximal inhibition in experiment [1] (IC50). This counts as double-digit nanomolar.
For `Cc1cccc(C)c1Nc1nn(C)c2nc(Nc3ccc4c(c3)C(C)N(C)C(C)(C)C4)ncc12` (stereo not drawn) [Example 67, N3-(2,6-dimethylphenyl)-1-methyl-N 6-(1,2,3,3-tetramethyl-1,2,3,4-tetrahydroisoquinoline-7-yl)-1H-pyrazolo[3,4-d]pyrimidine-3,6-diamine], the IC50 with TMD8 cells turned out to be 23.6 nM.
The molecule `CC(=O)N1Cc2cc(Nc3ncc4c(Nc5c(C)cccc5C)nn(C)c4n3)ccc2CC1(C)C` [Example 71, 1-(7-((3-((2,6-dimethylphenyl)amino)-1-methyl-1H-pyrazolo[3,4-d]pyrimidine-6-yl)amino)-3,3-dimethyl-3,4-dihydroisoquinoline-2(1H)-yl)ethane-1-one] had an IC50 in the experiment on TMD8 cells of 114 nM.
Still for that read-out and setting: the figure for `Cc1cccc(C)c1Nc1nn(C)c2nc(Nc3ccc4c(c3)CN(C)C4)ncc12` [Example 74, N3-(2,6-dimethylphenyl)-1-methyl-N 6-(2-methylisoindolin-5-yl)-1H-pyrazolo[3,4-d]pyrimidine-3,6-diamine] is 358 nM; for `CC(=O)N1CCc2ccc(Nc3ncc4c(Nc5c(C)cccc5C)nn(C)c4n3)cc2C1C(C)C` (stereo not drawn) [Example 70, 1-(7-((3-((2,6-dimethylphenyl)amino)-1-methyl-1H-pyrazolo[3,4-d]pyrimidine-6-yl)amino)-1-isopropyl-3,4-dihydroisoquinoline-2(1H)-yl) ethane-1-one] it is 24.5 nM.
On the same count and under the same terms, next, `C=CC(=O)Nc1ccc(Nc2ncc3c(Nc4c(C)cccc4C)nn(C)c3n2)cc1` [Example 76, N-(4-((3-((2,6-dimethylphenyl)amino)-1-methyl-1H-pyrazolo[3,4-d]pyrimidine-6-yl)amino)phenyl)acrylamide]: 75.2 nM; `COCCOc1cc(C)c(Nc2nn(C)c3nc(Nc4ccc5c(c4)C(C)(C)NCC5)ncc23)c(C)c1` [Example 79, N6-(1,1-dimethyl-1,2,3,4-tetrahydroisoquinoline-7-yl)-N 3-(4-(2-methoxyethoxy)-2,6-dimethylphenyl)-1-methyl-1H-pyrazolo[3,4-d]pyrimidine-3,6-diamine]: 13 nM.
The molecule `Cn1nc(Nc2c(F)cccc2F)c2cnc(Nc3ccc4c(c3)CNCC4)nc21` [Example 42, N^3-(2,6-difluorophenyl)-1-methyl-N^6-(1,2,3,4-tetrahydroisoquinoline-7-yl)-1H-pyrazolo[3,4-d]pyrimidine-3,6-diamine] returned an IC50 in the experiment on TMD8 cells of 397 nM. This IC50 lies about 31-fold higher than the previous one.
For the molecule `Cc1cccc(C)c1Nc1n[nH]c2nc(Nc3ccc4c(c3)CNCC4)ncc12` [Example 19, N3-(2,6-dimethylphenyl)-N6-(1,2,3,4-tetrahydroisoquinoline-7-yl)-1H-pyrazolo[3,4-d]pyrimidine-3,6-diamine], in the experiment with TMD8 cells, half-maximal inhibition (IC50) required 49.4 nM.
In turn, `CC(=O)N1CCC(c2ccc(Nc3ncc4c(Nc5c(C)cccc5C)nn(C)c4n3)cc2)CC1` [Comparative Example 2, 1-(4-(4-(3-(2,6-dimethylphenylamino)-1-methyl-1H-pyrazolo[3,4-d]pyrimidine-6-ylamino)phenyl)piperidine-1-yl)ethaneone, reference compound] gave an IC50 in experiment [1] of 20 nM. This lies in the double-digit nanomolar range.
